This passage reports IC50 results from patent US20050009840A1 (SUGEN, INC., priority 2003, published 2005).

The structures appear in SMILES notation. Read-outs that look alike come from different tables or passages of the source.

In this assay the target is T1, Met kinase domain (GST fusion protein) (Homo sapiens, UniProt P08581).
T1 construct: Purified GST fusion protein containing the Met kinase domain
Description: Met transphosphorylation assay (ELISA, poly(glu-tyr) substrate).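 Note: Cell-free ELISA with plate-bound poly(Glu:Tyr 4:1) phosphorylated by GST-fused Met kinase domain plus ATP and Mn2+, phosphotyrosine detected by anti-phosphotyrosine antibody with HRP and ABTS read-out.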 The following applies: read-out: Met IC50. Format: biochemical. Background: An ELISA detects its analyte on a solid surface through an enzyme-linked reagent.

[1] abbreviates: plain numbers in column Met IC50 (μM) of Table 2.

T1 sequence (P08581 1078-1345 limits assumed): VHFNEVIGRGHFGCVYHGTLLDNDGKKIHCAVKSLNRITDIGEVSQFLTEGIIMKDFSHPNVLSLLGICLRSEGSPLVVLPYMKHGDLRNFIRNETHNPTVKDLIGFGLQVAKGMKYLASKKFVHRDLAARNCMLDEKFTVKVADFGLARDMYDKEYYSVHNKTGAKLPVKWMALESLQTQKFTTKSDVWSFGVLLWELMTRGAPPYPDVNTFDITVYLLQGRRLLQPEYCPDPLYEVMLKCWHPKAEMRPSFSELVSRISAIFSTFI

As for `CC(Oc1cc(-c2ccc(NS(=O)(=O)CCNCC3CC3)cc2)cnc1N)c1c(Cl)ccc(F)c1Cl` (centres unmarked) [Example I-326, 2-(Cyclopropylmethyl-amino)-ethanesulfonic acid (4-{6-amino-5-[1-(2,6-dichloro-3-fluoro-phenyl)-ethoxy]-pyridin-3-yl}-phenyl)-amide], the IC50 (Table 2) came to 0.075 µM. With `Nc1ncc(-c2ccc(C(=O)N3CCC[C@@H]3CNCC3CC3)cc2)cc1OCc1c(Cl)cccc1Cl` [Example I-49, {4-[6-Amino-5-(2,6-dichloro-benzyloxy)-pyridin-3-yl]-phenyl}-{(2R)-2-[(cyclopropylmethyl-amino)-methyl]-pyrrolidin-1-yl}-methanone], the IC50 is 0.37 µM. Turning to `CC(=O)N1CCN(CC(=O)NCC#Cc2cnc(N)c(OC(C)c3c(Cl)ccc(F)c3Cl)c2)CC1` (centres unmarked) [Example I-431, 2-(4-Acetyl-piperazin-1-yl)-N-(3-{6-amino-5-[1-(2,6-dichloro-3-fluoro-phenyl)-ethoxy]pyridin-3-yl}-prop-2-ynyl)-acetamide], the IC50 under setting [1] stood at 0.027 µM.

As for `CC(Oc1cc(C#CCNC(=O)NCCN2CCOCC2)cnc1N)c1c(Cl)ccc(F)c1Cl` (centres unmarked) [Example I-419], the concentration for half-maximal inhibition (IC50) under setting [1] came to 0.055 µM. For the molecule `CN1CCN(C(=O)c2cccc(-c3cnc(N)c(OCc4c(F)ccc(F)c4Cl)n3)c2)CC1` [II-48, {3-[5-Amino-6-(2-chloro-3,6-difluoro-benzyloxy)-pyrazin-2-yl]-phenyl}-(4-methyl-piperazin-1-yl)-methanone], the IC50 was found to be 2.85 µM. The same measure, in the same setting: to `Nc1ncc(-c2ccc(O)cc2)cc1OCc1c(F)cccc1Cl` [Example I-128, 4-[6-Amino-5-(2-chloro-6-fluoro-benzyloxy)-pyridin-3-yl]-phenol] belongs 3.99 µM.

For `Nc1ncc(-c2cccc(NS(=O)(=O)CCN3CCCCC3)c2)cc1OCc1c(F)ccc(F)c1Cl` [Example I-260, 2-Pipendin-1-yl-ethanesulfonic acid {3-[6-amino-5-(2-chloro-3,6-difluoro-benzyloxy)-pyridin-3-yl]-phenyl}-amide], the IC50 (Table 2) was 1.63 µM. For the molecule `CC(Oc1nc(-c2cccc(C(=O)NCCCN3CCCC3)c2)cnc1N)c1c(F)ccc(F)c1Cl` (centres unmarked) [II-97, 3-{5-Amino-6-[1-(2-chloro-3,6-difluoro-phenyl)-ethoxy]-pyrazin-2-yl}-N-(3-pyrrolidin-1-yl-propyl)-benzamide], the IC50 worked out at 0.35 µM.

On to `CC(Oc1cc(-c2ccc(C(=O)N3CC[C@H](N)C3)cc2)cnc1N)c1c(Cl)cccc1Cl` (stereo partly drawn) [Example I-407, (4-{6-Amino-5-[1-(2,6-dichloro-phenyl)-ethoxy]-pyridin-3-yl}-phenyl)-((S)-3-aminopyrrolidin-1-yl)-methanone], for which the IC50 under setting [1] came to 0.05 µM. Still for that read-out and setting: to `CC(=O)N1CCN(CCNC(=O)c2cccc(-c3cnc(N)c(OC(C)c4c(Cl)cccc4Cl)c3)c2)CC1` (centres unmarked) [Example I-393, N-[2-(4-Acetyl-piperazin-1-yl)-ethyl]-3-{6-amino-5-[1-(2,6-dichloro-phenyl)-ethoxy]-pyridin-3-yl}-benzamide] belongs 0.079 µM. Turning to `Nc1ncc(Br)cc1OCc1c(Cl)cccc1Cl` [I(a), 5-Bromo-3-(2,6-dichloro-benzyloxy)-pyridin-2-ylamine], the IC50 amounted to 5.3 µM. As for `CC(Oc1cc(-c2cccc(C(=O)N3CCN(C)CC3)c2)cnc1N)c1c(Cl)ccc(F)c1Cl` (centres unmarked) [Example I-312], the IC50 (Table 2) turned out to be 0.062 µM.

For the molecule `Nc1ncc(-c2ccc(C(=O)N3CCC[C@@H]3CN3CCCC3)s2)nc1OCc1c(F)ccc(F)c1Cl` [II-197, {5-[5-Amino-6-(2-chloro-3,6-difluoro-benzyloxy)-pyrazin-2-yl]-thiophen-2-yl}-((R)-2-pyrrolidin-1-ylmethyl-pyrrolidin-1-yl)-methanone], the IC50 was 0.8 µM. Consider `Nc1ncc(-c2ccc(O)cc2)cc1OCc1ccccc1C(F)(F)F` [Example I-132, 4-[6-Amino-5-(2-trifluoromethyl-benzyloxy)-pyridin-3-yl]-phenol], for which the 50% inhibitory concentration (IC50) turned out to be 3.67 µM. Regarding `CC(Oc1cc(OCc2ccccc2)cnc1N)c1c(F)ccc(F)c1Cl` (centres unmarked) [Example I-529, 5-Benzyloxy-3-[1-(2-chloro-3,6-difluoro-phenyl)-ethoxy]-pyridin-2-ylamine], the IC50 under setting [1] worked out at 2.58 µM.

For the molecule `CC(Oc1cc(-c2ccc(NS(=O)(=O)CCN3CCCCC3)cc2)cnc1N)c1c(Cl)ccc(F)c1Cl` (centres unmarked) [Example I-325], under “Table 2”, the half-inhibitory concentration (IC50) worked out at 0.089 µM. Regarding `Nc1ncc(-c2ccc(OCCN3CCOCC3)cc2)nc1OCc1c(Cl)cccc1Cl` [II-4, 3-(2,6-Dichloro-benzyloxy)-5-[4-(2-morpholin-4-yl-ethoxy)-phenyl]-pyrazin-2-ylamine], the IC50 is 1.25 µM. In the case of `CC(C)(C)OC(=O)N[C@@H]1CCN(Cc2c[nH]c3ccc(-c4cnc(N)c(OCc5c(Cl)cccc5Cl)c4)cc23)C1` [Example I-65], the IC50 stood at 6.3 µM. `CC(Oc1cc(-c2ccc(NC(=O)N3CCC[C@@H]3CN3CCCC3)cc2)cnc1N)c1c(F)ccc(F)c1Cl` (stereo partly drawn) [Example I-385, (R)-2-Pyrrolidin-1-ylmethyl-pyrrolidine-1-carboxylic acid (4-{6-amino-5-[1-(2-chloro-3,6-difluoro-phenyl)-ethoxy]-pyridin-3-yl}-phenyl)-amide]: under setting [1], the IC50 was determined as 0.13 µM. Regarding `CN1CCN(C(=O)c2ccc(-c3cnc(N)c(OCc4c(F)cccc4Cl)c3)cc2)CC1` [Example I-146, {4-[6-Amino-5-(2-chloro-6-fluoro-benzyloxy)-pyridin-3-yl]-phenyl}-(4-methyl-piperazin-1-yl)-methanone], the IC50 turned out to be 1.94 µM.

`Nc1ncc(-c2ccc(C(=O)N3CCC[C@@H]3CN3CCCC3)cc2)cc1OCc1cc(F)ccc1C(F)(F)F` [Example I-113, {4-(6-Amino-5-(5-fluoro-2-trifluoromethyl-benzyloxy)pyridin-3-yl]-phenyl}-[(2R)-2-pyrrolidin-1-ylmethyl-pyrrolidin-1-yl]-methanone]: the concentration for half-maximal inhibition (IC50) is 1.27 µM. As for `Nc1ncc(-c2ccc(O)cc2)cc1OCc1ccccc1` [Example I-86, 4-(6-Amino-5-benzyloxy-pyridin-3-yl)-phenol], the IC50 was determined as 8.7 µM. On the same count and under the same terms, next, `CC(=O)N1CCN(C(=O)c2ccc(-c3cnc(N)c(OCc4c(F)cccc4Cl)c3)cc2)CC1` [Example I-147, 1-(4-{4-(6-Amino-5-(2-chloro-6-fluoro-benzyloxy)-pyridin-3-yl]-benzoyl}-piperazin-1-yl)-ethanone]: 1.45 µM; `CC(Oc1nc(-c2cccc(C(=O)N3CC[C@@H](N)C3)c2)cnc1N)c1c(Cl)ccc(F)c1Cl` (stereo partly drawn) [II-85, (3-{5-Amino-6-[1-(2,6-dichloro-3-fluoro-phenyl)-ethoxy]-pyrazin-2-yl}-phenyl)-[(3R)-3-amino-pyrrolidin-1-yl)-m-ethanone]: 0.11 µM.

Regarding `CC(Oc1cc(O)cnc1N)c1c(F)ccc(F)c1Cl` (centres unmarked) [Example I-535, 6-Amino-5-[1-(2-chloro-3,6-difluoro-phenyl)-ethoxy]-pyridin-3-ol], under setting [1], the IC50 is 0.54 µM.

Consider `CC(Oc1nc(-c2ccc(C(=O)N3CCC(N4CCCC4)CC3)cc2)cnc1N)c1c(Cl)cccc1Cl` (centres unmarked) [II-157, (4-{5-Amino-6-[1-(2,6-dichloro-phenyl)-ethoxy]-pyrazin-2-yl}-phenyl)-(4-pyrrolidin-1-yl-piperidin-1-yl)-methanone], for which the IC50 came out at 0.16 µM. Still for that read-out and setting: to `CC(Oc1nc(-c2cccc(C(=O)NC[C@@H](O)CN3CCCC3)c2)cnc1N)c1c(Cl)ccc(F)c1Cl` (stereo partly drawn) [II-138, 3-{5-Amino-6-[1-(2,6-dichloro-3-fluoro-phenyl)-ethoxy]-pyrazin-2-yl}-N-((R)-2-hydroxy-3-pyrrolidin-1-yl-propyl)-benzamide] belongs 0.13 µM; to `Nc1ncc(-c2ccc(NS(=O)(=O)CCN3CCC[C@H]3CO)cc2)nc1OCc1c(F)ccc(F)c1Cl` [II-14, 2-[(2S)-2-Hydroxymethyl-pyrrolidin-1-yl]-ethanesulfonic acid {4-[5-amino-6-(2-chloro-3,6-difluoro-benzyloxy)-pyrazin-2-yl]-phenyl}-amide], 1.78 µM. On the same count and under the same terms, next, `CC(Oc1nc(-c2ccc(C(=O)N3CCN(C)CC3)cc2)cnc1N)c1c(F)ccc(F)c1Cl` (centres unmarked) [II-110, (4-{5-Amino-6-[1-(2-chloro-3,6-difluoro-phenyl)-ethoxy]-pyrazin-2-yl}-phenyl)-(4-methyl-piperazin-1-yl)-methanone]: 0.16 µM. On the same count and under the same terms, to `CC(Oc1nc(-c2cccc(C(=O)N3CCN(C)CC3)n2)cnc1N)c1c(Cl)ccc(F)c1Cl` (centres unmarked) [II-204, (6-{5-Amino-6-[1-(2,6-dichloro-3-fluoro-phenyl)-ethoxy]-pyrazin-2-yl}-pyridin-2-yl)-(4-methyl-piperazin-1-yl)-methanone] belongs 0.22 µM. With `CC(Oc1cc(-c2cccc(OCCN3CCOCC3)c2)cnc1N)c1c(F)ccc(F)c1Cl` (centres unmarked) [Example I-354, 3-[1-(2-Chloro-3,6-difluoro-phenyl)-ethoxy]-5-[3-(2-morpholin-4-yl-ethoxy)-phenyl]-pyridin-2-ylamine], for the setting “Table 2”, the IC50 was found to be 0.22 µM. Still for that read-out and setting: next, `CCN(CC)CCOc1ccc(-c2cnc(N)c(OC(C)c3c(Cl)ccc(F)c3Cl)c2)cc1` (centres unmarked) [Example I-360, 3-[1-(2,6-Dichloro-3-fluoro-phenyl)-ethoxy]-5-[4-(2-diethylamino-ethoxy)-phenyl]-pyridin-2-ylamine]: 0.033 µM.

With `CN(CC(O)CN1CCCC1)C(=O)c1ccc(-c2cnc(N)c(OCc3c(Cl)cccc3Cl)c2)cc1` (centres unmarked) [Example I-51, 4-[6-Amino-5-(2,6-dichloro-benzyloxy)-pyridin-3-yl]-N-(2-hydroxy-3-pyrrolidin-1-yl-propyl)-N-methyl-benzamide], the concentration for half-maximal inhibition (IC50) came to 0.71 µM. Regarding `CC(Oc1cc(-c2cc3ccccc3s2)cnc1N)c1c(Cl)ccc(F)c1Cl` (centres unmarked) [Example I-370, 5-Benzo[b]thiophen-2-yl-3-[1-(2,6-dichloro-3-fluoro-phenyl)-ethoxy]-pyridin-2-ylamine], under setting [1], the IC50 stood at 1.95 µM. Regarding `CC(Oc1nc(-c2ccc(C(=O)N3CC[C@@H](N)C3)cc2)cnc1N)c1c(Cl)cccc1Cl` (stereo partly drawn) [II-164, (4-{5-Amino-6-[1-(2,6-dichloro-phenyl)-ethoxy]-pyrazin-2-yl}-phenyl)-((R)-3-aminopyrrolidin-1-yl)-methanone], the IC50 was determined as 0.15 µM.

As a reminder, the IC50 is the concentration needed to halve the response being measured.
